These results are taken from patent US20250002471A1 (Gilead Sciences, Inc., priority 2020, published 2025).

Molecules are shown by their SMILES.

Test [1] has as its target T1, TLR9 (Homo sapiens, UniProt Q9NR96).
T1 construct: lymphocytes, monocytes and dendritic cells that express TLR7, TLR8 and TLR9; endogenous in cells; host or cells: human PBMCs from healthy donors
T1 sequence (Q9NR96 26-1032): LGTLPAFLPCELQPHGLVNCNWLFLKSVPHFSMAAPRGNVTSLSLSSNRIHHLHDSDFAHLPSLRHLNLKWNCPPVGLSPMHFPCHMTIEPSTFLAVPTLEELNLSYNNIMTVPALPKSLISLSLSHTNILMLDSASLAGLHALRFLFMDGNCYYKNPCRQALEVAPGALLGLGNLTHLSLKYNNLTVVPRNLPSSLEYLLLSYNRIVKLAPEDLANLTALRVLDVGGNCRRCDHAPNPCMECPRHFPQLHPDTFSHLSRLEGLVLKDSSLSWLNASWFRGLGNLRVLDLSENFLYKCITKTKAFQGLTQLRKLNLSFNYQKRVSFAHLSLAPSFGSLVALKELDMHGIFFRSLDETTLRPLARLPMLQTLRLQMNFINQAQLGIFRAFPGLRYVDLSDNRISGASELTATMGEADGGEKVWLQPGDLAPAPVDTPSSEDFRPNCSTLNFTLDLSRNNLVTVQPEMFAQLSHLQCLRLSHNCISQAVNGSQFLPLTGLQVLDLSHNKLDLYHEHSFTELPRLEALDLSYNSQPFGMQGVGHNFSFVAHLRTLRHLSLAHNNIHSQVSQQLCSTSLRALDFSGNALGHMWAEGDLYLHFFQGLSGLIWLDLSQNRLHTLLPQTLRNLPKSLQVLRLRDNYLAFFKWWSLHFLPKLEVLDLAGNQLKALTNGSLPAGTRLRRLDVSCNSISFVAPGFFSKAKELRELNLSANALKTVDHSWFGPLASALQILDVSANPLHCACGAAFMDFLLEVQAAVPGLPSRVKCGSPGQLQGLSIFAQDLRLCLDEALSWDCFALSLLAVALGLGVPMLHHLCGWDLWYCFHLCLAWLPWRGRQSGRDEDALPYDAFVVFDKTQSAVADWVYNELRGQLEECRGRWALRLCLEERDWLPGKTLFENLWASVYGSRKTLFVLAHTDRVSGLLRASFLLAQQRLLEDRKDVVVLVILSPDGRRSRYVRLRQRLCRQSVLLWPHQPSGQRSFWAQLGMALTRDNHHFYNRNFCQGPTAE
Kind of test: Human PBMC cell-based assay, TLR9 agonist ODN-2216 stimulation, cytokine (IL-6 and IFNα) readout. Conditions: human PBMCs, ODN-2216 3 μM, 6 hours; Table 26; read-out: TLR-9 EC50. The method in brief:
(§1)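 Readout is IL-6 and IFNα in supernatants, quantified by electrochemiluminescence, with EC50 from a sigmoidal fit of cytokine versus concentration. Healthy-donor human PBMCs, 100,000 per well, got antagonist for 1 h at 37 °C, then 6 h agonist exposure: TLR7 via GS-986 at 400 nM final, TLR9 via ODN-2216 at 3 μM final.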

For test [2], the target named is T2, TLR7 (Homo sapiens, UniProt Q9NYK1).
T2 construct: lymphocytes, monocytes and dendritic cells that express TLR7, TLR8 and TLR9; endogenous in cells; host or cells: human PBMCs from healthy donors
T2 sequence (Q9NYK1 27-1049): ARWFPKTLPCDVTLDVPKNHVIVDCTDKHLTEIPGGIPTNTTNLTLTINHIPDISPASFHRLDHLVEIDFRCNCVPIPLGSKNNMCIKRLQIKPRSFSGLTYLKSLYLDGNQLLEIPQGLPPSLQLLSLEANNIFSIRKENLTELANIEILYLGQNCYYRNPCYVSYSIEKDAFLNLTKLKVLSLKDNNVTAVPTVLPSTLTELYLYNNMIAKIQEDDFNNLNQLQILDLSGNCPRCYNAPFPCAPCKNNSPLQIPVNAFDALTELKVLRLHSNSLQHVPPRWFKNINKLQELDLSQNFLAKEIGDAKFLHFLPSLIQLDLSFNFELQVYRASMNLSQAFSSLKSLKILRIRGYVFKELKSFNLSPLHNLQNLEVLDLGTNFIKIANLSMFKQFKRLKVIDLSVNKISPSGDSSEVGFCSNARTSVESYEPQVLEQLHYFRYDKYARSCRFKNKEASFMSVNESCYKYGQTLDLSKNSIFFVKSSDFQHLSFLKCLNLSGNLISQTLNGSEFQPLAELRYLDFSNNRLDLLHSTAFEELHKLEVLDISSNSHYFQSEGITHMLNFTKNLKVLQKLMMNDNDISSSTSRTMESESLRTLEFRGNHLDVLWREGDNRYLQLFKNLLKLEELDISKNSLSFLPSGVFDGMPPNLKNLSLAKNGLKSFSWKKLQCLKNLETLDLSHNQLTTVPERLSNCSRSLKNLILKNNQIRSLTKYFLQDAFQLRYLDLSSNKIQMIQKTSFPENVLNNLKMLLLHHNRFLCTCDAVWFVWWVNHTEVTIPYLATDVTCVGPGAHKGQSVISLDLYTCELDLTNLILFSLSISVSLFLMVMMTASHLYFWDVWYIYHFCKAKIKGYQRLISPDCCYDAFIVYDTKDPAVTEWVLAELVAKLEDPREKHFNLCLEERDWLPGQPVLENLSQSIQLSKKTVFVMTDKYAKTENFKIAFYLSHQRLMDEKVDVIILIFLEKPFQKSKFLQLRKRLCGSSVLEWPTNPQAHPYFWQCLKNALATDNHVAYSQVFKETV
Put plainly: Human PBMC cell-based assay, TLR7 agonist GS-986 stimulation, cytokine (IL-6 and IFNα) readout. Conditions: human PBMCs, GS-986 400 nM, 6 hours; Table 26; read-out: TLR-7 EC50. The method in brief:
as §1

As a reminder, the EC50 is the concentration at which the effect is half-maximal. Turning to `CC(=O)N1CCN(c2ccc(-c3ccc4c(C)c(-c5cc(C)nc(C)c5)[nH]c4c3)cn2)CC1` [Example 107], the EC50 was 717 nM in test [1] and 224 nM in test [2].

In the case of `Cc1cc(-c2[nH]c3cc(-c4ccc(N5CCN(C(=O)[C@H]6CCCN6)CC5)nc4)ccc3c2C)cc(C)n1` [Example 134, (R)-2-(2,6-dimethylpyridin-4-yl)-3-methyl-6-(6-(4-prolylpiperazin-1-yl)pyridin-3-yl)-1H-indole], the EC50 was 58.9 nM in test [1] and 41.9 nM in test [2].

Turning to `Cc1cc(-c2[nH]c3cc(-c4ccc(N5CCN(CC(C)O)CC5)nc4)ccc3c2C)cc(C)n1` (stereo not drawn) [Example 118], the 50% effective concentration (EC50) in test [1] is 58.7 nM; in test [2] it was 5.8 nM.

For `Cc1cc(-c2[nH]c3cc(-c4ccc(C(=O)N5CCNCC5)cc4)ccc3c2C)cc(C)n1` [Example 8], the 50% effective concentration (EC50) amounted to 84.4 nM in test [1] and 84.3 nM in test [2].

In the case of `Cc1cc(-c2[nH]c3cc(-c4ccc(N5CCNCC5)nc4)ccc3c2C#N)cc(C)n1` [Example 101, 2-(2,6-dimethylpyridin-4-yl)-6-(6-(piperazin-1-yl)pyridin-3-yl)-1H-indole-3-carbonitrile], the results for the EC50 in test [1] and in test [2] were 316 nM and 1720 nM, respectively.

Regarding `Cc1cc(-c2[nH]c3cc(-c4cccc(C(=O)N5CC[C@H](N)C5)c4)ccc3c2C)cc(C)n1` [Example 119, (S)-(3-aminopyrrolidin-1-yl)(3-(2-(2,6-dimethylpyridin-4-yl)-3-methyl-1H-indol-6-yl)phenyl)methanone], the 50% effective concentration (EC50) in test [1] came out at 193 nM; in test [2], 54.1 nM.

With `Cc1cc(-c2[nH]c3cc(-c4ccc(N5CCNCC5)nc4)ccc3c2C)cc(N)n1` [Example 78], the results for the half-maximal effective concentration (EC50) in test [1] and in test [2] were 121 nM and 33.1 nM, respectively.

Take `Cc1cc(-c2[nH]c3cc(C(=O)NC4CCNCC4)ccc3c2C)cc(C)n1` [Example 178, 2-(2,6-dimethylpyridin-4-yl)-3-methyl-N-(piperidin-4-yl)-1H-indole-6-carboxamide]: the EC50 in test [1] is 1880 nM; in test [2], over 1000 nM.

Turning to `Cc1cc(-c2[nH]c3cc(-c4cnc(N5CCNCC5)nc4)ccc3c2C)cc(C)n1` [Example 65], the figures for the concentration giving a half-maximal response (EC50) in test [1] and in test [2] were 63.2 nM and 15.3 nM, respectively.

In the case of `Cc1cc(-c2[nH]c3cc(-c4ccc5ncn(C6CCNCC6)c5c4)ccc3c2C)cc(C)n1` [Example 166], the EC50 in test [1] turned out to be 522 nM; in test [2], 144 nM.

Regarding `Cc1cc(-c2[nH]c3cc(-c4nc(C5CCNCC5)no4)ccc3c2C)cc(C)n1` [Example 189], the figures for the concentration giving a half-maximal response (EC50) in test [1] and in test [2] were 217 nM and 108 nM, respectively.

As to `Cc1cc(-c2[nH]c3cc(-c4ccc(CN5CCNCC5)cc4)ccc3c2C)cc(C)n1` [Example 7], the EC50 in test [1] amounted to 87.2 nM; in test [2], 170 nM.

As to `CC(=O)c1c(-c2cc(C)nc(C)c2)[nH]c2cc(-c3ccc(N4CCNCC4)nc3)ccc12` [Example 102, 1-(2-(2,6-dimethylpyridin-4-yl)-6-(6-(piperazin-1-yl)pyridin-3-yl)-1H-indol-3-yl)ethan-1-one], the results for the EC50 in test [1] and in test [2] were 217 nM and 1730 nM, respectively.

As to `Cc1cc(-c2[nH]c3cc(-c4ccc(N5CCN(C(=O)[C@@H]6CCNC6)CC5)nc4)ccc3c2C)cc(C)n1` [Example 139], the 50% effective concentration (EC50) turned out to be 203 nM in test [1] and 93.5 nM in test [2].

For `Cc1cc(-c2[nH]c3cc(-c4ccc(N5CC[C@@H](N)C5)nc4)ccc3c2C)cc(C)n1` [Example 31], the EC50 is 13.5 nM in test [1] and 8.3 nM in test [2].

For `Cc1cc(-c2[nH]c3cc(-c4ccc5[nH]c(C6CCNCC6)nc5c4)ccc3c2C)cc(C)n1` [Example 147, 5-[2-(2,6-dimethyl-4-pyridyl)-3-methyl-1H-indol-6-yl]-2-(4-piperidyl)-1H-benzimidazole], the values for the 50% effective concentration (EC50) in test [1] and in test [2] were 1350 nM and over 1000 nM, respectively.

Consider `Cc1cc(-c2[nH]c3cc(-c4cnc(N5CCNCC5)nc4)ccc3c2C2CC2)cc(C)n1` [Example 67], for which the EC50 came to 199 nM in test [1] and 3 nM in test [2].

Consider `Cc1cc(-c2[nH]c3cc(-c4ccc(N5CCNCC5)nc4)ccc3c2C)nc(C)n1` [Example 96], for which the EC50 in test [1] amounted to 609 nM; in test [2], 144 nM.

As for `Cc1c(-c2cnn(C)c2)[nH]c2cc(-c3ccc(N4CCNCC4)nc3)ccc12` [Example 87], the EC50 is 583 nM in test [1] and 2180 nM in test [2].

For the compound `Cc1cc(-c2[nH]c3cc(-c4ccc(C5=CCNCC5)nc4)ccc3c2C)cc(C)n1` [Example 132, 2-(2,6-dimethylpyridin-4-yl)-3-methyl-6-(1′,2′,3′,6′-tetrahydro-[2,4′-bipyridin]-5-yl)-1H-indole], the EC50 amounted to 10.6 nM in test [1] and 5.1 nM in test [2].

With `Cc1cc(-c2[nH]c3cc(-c4ccc5c(c4)CNCC5)ccc3c2C)cc(C)n1` [Example 14], the results for the EC50 in test [1] and in test [2] were 108 nM and 213 nM, respectively.

As for `Cc1cc(-c2[nH]c3cc(-c4ccc(N5CCNCC5)nc4)ccc3c2C)c2cccnc2n1` [Example 99], the half-maximal effective concentration (EC50) turned out to be 548 nM in test [1] and 1.8 nM in test [2].

For the compound `Cc1cc(-c2[nH]c3cc(-c4ccc5nc([C@@H]6CCCNC6)[nH]c5c4)ccc3c2C)cc(C)n1` [Example 160], the EC50 in test [1] stood at 566 nM; in test [2], 30.7 nM.

In the case of `Cc1cc(-c2[nH]c3cc(-c4ccnc(N5CCOCC5)c4)ccc3c2C)cc(C)n1` [Example 59, 4-(4-(2-(2,6-dimethylpyridin-4-yl)-3-methyl-1H-indol-6-yl)pyridin-2-yl)morpholine], the concentration for a half-maximal effect (EC50) was 1780 nM in test [1] and 809 nM in test [2].

As to `Cc1cc(-c2[nH]c3cc(-c4ccc(N5CCN(C(=O)CN)CC5)nc4)ccc3c2C)cc(C)n1` [Example 137], the concentration giving a half-maximal response (EC50) in test [1] came out at 119 nM; in test [2], 45.9 nM.

With `Cc1cc(-c2[nH]c3cc(-c4ccc(C(=O)N5CCN6CCC5C6)cc4)ccc3c2C)cc(C)n1` (stereo not drawn) [Example 128], the EC50 in test [1] was 83.3 nM; in test [2] it was 146 nM.

As for `Cc1cc(-c2[nH]c3cc(C(=O)N4CCC5(CCNCC5)CC4)ccc3c2C)cc(C)n1` [Example 180], the EC50 was 835 nM in test [1] and over 1000 nM in test [2].

On to `Cc1cc(-c2[nH]c3cc(-c4ccc(N5C[C@H]6CC[C@@H](C5)[C@H]6N)nc4)ccc3c2C)cc(C)n1` [Example 27], for which the results for the concentration for a half-maximal effect (EC50) in test [1] and in test [2] were 55.2 nM and 196 nM, respectively.

As for `Cc1cc(-c2[nH]c3cc(-c4ccc(N5CCN(CC(F)(F)F)CC5)nc4)ccc3c2C)cc(C)n1` [Example 142], the results for the EC50 in test [1] and in test [2] were 1370 nM and over 1000 nM, respectively.

For the compound `Cc1ncc(-c2[nH]c3cc(-c4ccc(N5CCNCC5)nc4)ccc3c2C)cn1` [Example 82], the EC50 in test [1] is 489 nM; in test [2], 503 nM.
